# Data: US20050256103A1, “Indole derivative having piperidine ring” (Eisai Co., Ltd., priority 2004, published 2005)
# Legend:
# serotonin 1A receptor = target: T1, serotonin 1A receptor (Mus musculus, UniProt Q64264); assay: Antagonistic effect on serotonin 1A receptor agonist (8-OH-DPAT)-induced hypothermia in mouse; format: in vivo; details: CD-1 (ICR) male mice; inhibition of hypothermia by 8-OH-DPAT 0.5 mg/kg sc; test substance 15 minutes before agonist
# T1 construct: into the rectum of CD-1 (ICR) male mice (25-45 g); from tissue; host or cells: living CD-1 (ICR) male mice (in vivo)
# T1 sequence (Q64264 1-421): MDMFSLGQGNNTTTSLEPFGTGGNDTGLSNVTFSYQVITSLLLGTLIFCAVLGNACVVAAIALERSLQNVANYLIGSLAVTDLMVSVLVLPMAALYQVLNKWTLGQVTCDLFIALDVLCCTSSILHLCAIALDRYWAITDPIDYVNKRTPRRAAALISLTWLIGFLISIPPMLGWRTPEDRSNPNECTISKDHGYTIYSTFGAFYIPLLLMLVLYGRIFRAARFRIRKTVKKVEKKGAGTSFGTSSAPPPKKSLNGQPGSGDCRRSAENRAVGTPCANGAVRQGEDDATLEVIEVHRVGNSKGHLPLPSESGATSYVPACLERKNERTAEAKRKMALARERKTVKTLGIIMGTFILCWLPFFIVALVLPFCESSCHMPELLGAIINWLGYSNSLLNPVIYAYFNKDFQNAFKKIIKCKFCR
# How it was run: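 CD-1 (ICR) male mice, 25-45 g; rectal temperature by thermistor probe at about 2 cm depth. Test substance given 15 min before s.c. 8-OH-DPAT […]; antagonism scored as inhibition of the induced hypothermia.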
# Sprague-Dawley male rats = assay: Effect of controlling memory disorder induced by 8-OH-DPAT in rats (8-arm radial maze); format: in vivo, rat; details: 0.3 mg/kg, s.c., 20 min before 8-OH-DPAT 0.5 mg/kg s.c.; Mean ± S.E., N 8
# Excerpt: (1) A Sprague-Dawley male rats (130-200 g) were bred in an individual cage and used in the present test. For appetite stimulation, the body weight of the rats was reduced to approximately 80% of the original weight by fasting. […] As a maze test, an elevated 8-arm radial maze (central platform diagonal length: 34 cm, arm length: 60 cm; arm width: 12 cm) was used. In order to allow the rats to remember the positions of baits placed on the arms, the rats were left on the platform of the maze in which baits had been placed on the tips of the 4 predetermined arms. Thereafter, the rats were left on the maze for a certain period of time or until it ate all the baits. This training was carried out 1 to 3 times a day. The rats that had sufficiently learned were subjected to the following experiment. A solvent or test substance was subcutaneously administered to the rats. Twenty minutes later, 0.5 mg/kg 8-OH-DPAT was subcutaneously administered thereto. Further, 20 minutes later, the same maze test as that in the training was carried out. A reference memory error was defined as an action to enter arms on which no baits had been placed, and a working memory error was defined as an action to enter again arms on which baits had previously been placed. Thus, the actions of the rat were recorded. In addition, the time required for the rat to take all the four baits was also recorded. […] (Reference:Yoshihiro Hiraga, “Effects of scopolamine upon delayed radial-arm maze performance in rats” Folia pharmacol. Japon. 97, 351-359 (1991)) The results are shown in Table 4.
# male C57BL mice = assay: Antianxiety effect by mouse light/dark box test; format: in vivo; details: sc, 30 minutes before test, 5 min observation, N 7
# Description: (1) The method of Belzung C., Misslin R., and Vogel E. (Reference: Behavioural effects of the benzodiazepine receptor partial agonist RO16-6028 in mice, Psychopharmacology, 97, 388-391, 1989) was modified. The present mouse light/dark box test was carried out according to such a modified method. As a test device used in this test, a lidded black acryl box (dark box, 15×10×20 cm) was connected to a lidless white acryl box (light box, 15×20×20 cm) using a black-acryl tunnel (10×7×4.5 cm), so as to prepare a light/dark box in which a mouse can freely move between the dark box and the light box. In this test device, in order to observe the behavior of the mouse, the anterior surface (20×20 cm) and back surface (20×20 cm) of the light box were made from transparent acryl. The illumination was set to provide in an illuminance of 150 Lux on the floor of the light box. Thereafter, each of male C57BL mice (20-35 g) was placed in the dark box, and the test was started. In this test, a test substance was subcutaneously administered to the test animal 30 minutes before the initiation of the test.
# A state where the 4 legs of the mouse were contacted with on the floor of the light box was defined as stay at a light place, and the time when the mouse stayed at a light place was measured. The obtained time was used as an index of antianxiety action.
compound,measurement,setting,value
"CNC(=O)c1ccc2ccn(C3CCN(CCc4c(OC)ccc5c4OC(C)(C)CC5=O)CC3)c2c1 [Compound 20, 1-{1-[2-(7-methoxy-2,2-dimethyl-4-oxochroman-8-yl)ethyl]piperidin-4-yl}-N-methyl-1H-indole-6-carboxamide]",ED50,serotonin 1A receptor,"0.03 mg/kg, sc"
same,Elapsed time,Sprague-Dawley male rats,52 ± 9.9 s
same,Number of reference memory errors,Sprague-Dawley male rats,1.50 ± 0.57
same,Number of working memory errors,Sprague-Dawley male rats,0.25 ± 0.16
same,Time of stay at light place,male C57BL mice; 0.03 mg/kg,46 ± 9.4 s
same,Time of stay at light place,male C57BL mice; 0.1 mg/kg,67 ± 19 s
